Experimental data taken from patent US5453439A, “Hydroxylamine derivatives” (Zeneca Limited, priority 1992, dated 1995).

Assays:
5-LO = molecular target: T1, 5-LO (Homo sapiens, UniProt P09917); experiment: Test a) in vitro heparinised human blood, A23187 challenge, LTB4 radioimmunoassay (indirect inhibition of 5-LO); type: cell-based
T1 construct: incubating a test compound with heparinised human blood; endogenous in cells; host or cells: heparinised human blood (blood cells; A23187 challenge)
T1 sequence (P09917 1-674): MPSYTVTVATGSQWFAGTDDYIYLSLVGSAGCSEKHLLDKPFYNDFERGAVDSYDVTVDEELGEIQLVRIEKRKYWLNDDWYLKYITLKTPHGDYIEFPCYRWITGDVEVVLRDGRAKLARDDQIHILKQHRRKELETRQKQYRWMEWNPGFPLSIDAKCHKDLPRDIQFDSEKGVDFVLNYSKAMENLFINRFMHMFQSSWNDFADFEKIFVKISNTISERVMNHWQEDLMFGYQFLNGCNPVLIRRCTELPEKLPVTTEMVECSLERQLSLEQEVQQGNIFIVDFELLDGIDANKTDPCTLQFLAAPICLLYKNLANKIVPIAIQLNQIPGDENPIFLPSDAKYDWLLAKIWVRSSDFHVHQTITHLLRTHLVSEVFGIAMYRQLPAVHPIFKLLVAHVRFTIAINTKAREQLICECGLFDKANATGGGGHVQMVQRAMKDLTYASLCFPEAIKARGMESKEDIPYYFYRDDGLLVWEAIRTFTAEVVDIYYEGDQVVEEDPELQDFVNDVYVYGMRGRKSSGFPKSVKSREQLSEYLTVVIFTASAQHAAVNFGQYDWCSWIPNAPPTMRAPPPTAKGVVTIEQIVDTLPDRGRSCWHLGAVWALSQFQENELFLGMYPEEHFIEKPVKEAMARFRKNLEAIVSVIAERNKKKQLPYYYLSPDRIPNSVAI
Description: a) An in vitro assay system involving incubating a test compound with heparinised human blood, prior to challenge with the calcium ionophore A^23187 and then indirectly measuring the inhibitory effects on 5-LO by assaying the amount of LTB4 using specific radioimmunoassays described by Carey and Forder (Prostaglandins, Leukotrienes Med., 1986, 22, 57; Prostaglandins, 1984, 28, 666; Brit. J. Pharmacol., 1985, 84, 34P) which involves the use of a protein-LTB4 conjugate produced using the procedure of Young et alia (Prostaglandins, 1983, 26(4), 605-613). The effects of a test compound on the enzyme cyclooxygenase (which is involved in the alternative metabolic pathway for arachidonic acid and gives rise to prostaglandins, thromboxanes and related metabolites) may be measured at the same time using the specific radioimmunoassay for thromboxane B2 (TxB2) described by Carey and Forder (see above). This test provides an indication of the effects of a test compound against 5-LO and also cyclooxygenase in the presence of blood cells and proteins. It permits the selectivity of the inhibitory effect on 5-LO or cyclooxygenase to be assessed.

[1] = tested on: LTB4 liberation induced by zymosan (5-LO); experiment: Test c) in vivo zymosan-induced LTB4 liberation in rat subcutaneous air pouch, oral administration; conditions: 3 h; test c)
Description: c) An in vivo system involving measuring the effects of a test compound administered orally against the liberation of LTB4 induced by zymosan within an air pouch generated within the subcutaneous tissue of the back of male rats. The rats are anaesthetised and air pouches are formed by the injection of sterile air (20 ml). A further injection of air (10 ml) is similarly given after 3 days. At 6 days after the initial air injection the test compound is administered (usually orally as the suspension produced when a solution of the test compound in dimethylsulphoxide is added to hydroxypropylmethylcellulose), followed by the intrapouch injection of zymosan (1 ml of a 1% suspension in physiological saline). After 3 hours the rats are killed, the air pouches are lavaged with physiological saline, and the specific radioimmunoassay described above is used to assay LTB4 in the washings. This test provides an indication of inhibitory effects against 5-LO in an inflammatory milieu.

Row | IC50 (5-LO) | SMILES | ED50 [1]
1 | 570 nM | COC1(c2cc(F)cc(Sc3ccc(C(C)N(O)C(N)=O)cc3)c2)CCOCC1 (stereo not drawn) [N-{4-[5-fluoro-3-(4-methoxytetrahydropyran-4-yl)phenylthio]-α-methylbenzyl)-N-hydroxyurea] | ~0.5 mg/kg
2 | 40 nM | CONC(C)c1ccc(Sc2cc(F)cc(C3(OC)CCOCC3)c2)cc1 (stereo not drawn) [N-{4-[5-fluoro-3-(4-methoxytetrahydropyran-4-yl)phenylthio]-α-methylbenzyl}-O-methylhydroxylamine] | ~0.5 mg/kg
3 | 150 nM | COC1(c2cc(F)cc(Sc3ccc(C(C)N(OC(C)=O)C(C)=O)cc3)c2)CCOCC1 (stereo not drawn) [O-acetyl-N-{4-[5-fluoro-3-(4-methoxytetrahydropyran-4-yl)phenylthio]-α-methylbenzyl}acetohydroxamic acid] | ~0.5 mg/kg
